In the kinase profiling compilation of Christmann-Franck et al. (2016):

Columns and labels:
Test in all cases: KINOMEscan competition binding
Conditions in all cases: compound 10.0 µM
ACVRL1 (human) = ACVRL1 (human) (UniProt P37023)
BRSK1 (human) = BRSK1 (human) (UniProt Q8TDC3)
CAMK2A (human) = CAMK2A (human) (UniProt Q9UQM7)
CDC42BPG (human) = CDC42BPG (human) (UniProt Q6DT37)
CDK15 (human) = CDK15 (human) (UniProt Q96Q40)
CDK18 (human) = CDK18 (human) (UniProt Q07002)
CDK7 (human) = CDK7 (human) (UniProt P50613)
CHUK (human) = CHUK (human) (UniProt O15111)
CSNK1G1 (human) = CSNK1G1 (human) (UniProt Q9HCP0)
DCLK2 (human) = DCLK2 (human) (UniProt Q8N568)
EPHB2 (human) = EPHB2 (human) (UniProt P29323)
Chain of EPHB2 (human) (P29323 whole entry, looked up): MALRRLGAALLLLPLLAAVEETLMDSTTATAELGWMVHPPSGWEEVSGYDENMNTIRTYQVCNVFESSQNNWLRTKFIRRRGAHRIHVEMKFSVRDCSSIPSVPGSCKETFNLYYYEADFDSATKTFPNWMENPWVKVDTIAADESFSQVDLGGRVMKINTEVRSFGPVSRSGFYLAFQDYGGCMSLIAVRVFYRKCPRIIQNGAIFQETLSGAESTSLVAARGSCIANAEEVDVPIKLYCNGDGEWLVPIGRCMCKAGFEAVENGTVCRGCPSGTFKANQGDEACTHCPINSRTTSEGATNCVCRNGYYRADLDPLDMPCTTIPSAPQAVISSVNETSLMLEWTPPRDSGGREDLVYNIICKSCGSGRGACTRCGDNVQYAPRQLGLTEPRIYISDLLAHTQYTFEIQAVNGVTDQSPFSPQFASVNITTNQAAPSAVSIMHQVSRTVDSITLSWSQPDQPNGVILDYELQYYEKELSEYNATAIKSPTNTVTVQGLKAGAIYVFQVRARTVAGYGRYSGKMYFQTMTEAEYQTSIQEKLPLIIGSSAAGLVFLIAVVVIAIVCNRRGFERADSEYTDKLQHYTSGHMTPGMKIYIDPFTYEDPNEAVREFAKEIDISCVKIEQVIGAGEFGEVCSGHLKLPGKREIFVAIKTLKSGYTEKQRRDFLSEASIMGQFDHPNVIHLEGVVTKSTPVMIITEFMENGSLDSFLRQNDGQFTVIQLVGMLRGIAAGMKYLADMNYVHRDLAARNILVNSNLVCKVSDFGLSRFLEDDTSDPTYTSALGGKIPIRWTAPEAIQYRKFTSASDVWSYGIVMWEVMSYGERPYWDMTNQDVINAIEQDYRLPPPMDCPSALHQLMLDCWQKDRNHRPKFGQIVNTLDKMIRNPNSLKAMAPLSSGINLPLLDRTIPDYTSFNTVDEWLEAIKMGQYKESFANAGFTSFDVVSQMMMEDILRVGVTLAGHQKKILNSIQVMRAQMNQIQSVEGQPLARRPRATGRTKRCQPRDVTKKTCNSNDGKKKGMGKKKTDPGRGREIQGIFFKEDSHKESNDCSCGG

FYN (human) = FYN (human) (UniProt P06241)
IKBKB (human) = IKBKB (human) (UniProt O14920)
[1] = target: JAK1 JH1 catalytic (human) (UniProt P23458)
Chain of JAK1 JH1 catalytic (human) (P23458 whole entry, looked up): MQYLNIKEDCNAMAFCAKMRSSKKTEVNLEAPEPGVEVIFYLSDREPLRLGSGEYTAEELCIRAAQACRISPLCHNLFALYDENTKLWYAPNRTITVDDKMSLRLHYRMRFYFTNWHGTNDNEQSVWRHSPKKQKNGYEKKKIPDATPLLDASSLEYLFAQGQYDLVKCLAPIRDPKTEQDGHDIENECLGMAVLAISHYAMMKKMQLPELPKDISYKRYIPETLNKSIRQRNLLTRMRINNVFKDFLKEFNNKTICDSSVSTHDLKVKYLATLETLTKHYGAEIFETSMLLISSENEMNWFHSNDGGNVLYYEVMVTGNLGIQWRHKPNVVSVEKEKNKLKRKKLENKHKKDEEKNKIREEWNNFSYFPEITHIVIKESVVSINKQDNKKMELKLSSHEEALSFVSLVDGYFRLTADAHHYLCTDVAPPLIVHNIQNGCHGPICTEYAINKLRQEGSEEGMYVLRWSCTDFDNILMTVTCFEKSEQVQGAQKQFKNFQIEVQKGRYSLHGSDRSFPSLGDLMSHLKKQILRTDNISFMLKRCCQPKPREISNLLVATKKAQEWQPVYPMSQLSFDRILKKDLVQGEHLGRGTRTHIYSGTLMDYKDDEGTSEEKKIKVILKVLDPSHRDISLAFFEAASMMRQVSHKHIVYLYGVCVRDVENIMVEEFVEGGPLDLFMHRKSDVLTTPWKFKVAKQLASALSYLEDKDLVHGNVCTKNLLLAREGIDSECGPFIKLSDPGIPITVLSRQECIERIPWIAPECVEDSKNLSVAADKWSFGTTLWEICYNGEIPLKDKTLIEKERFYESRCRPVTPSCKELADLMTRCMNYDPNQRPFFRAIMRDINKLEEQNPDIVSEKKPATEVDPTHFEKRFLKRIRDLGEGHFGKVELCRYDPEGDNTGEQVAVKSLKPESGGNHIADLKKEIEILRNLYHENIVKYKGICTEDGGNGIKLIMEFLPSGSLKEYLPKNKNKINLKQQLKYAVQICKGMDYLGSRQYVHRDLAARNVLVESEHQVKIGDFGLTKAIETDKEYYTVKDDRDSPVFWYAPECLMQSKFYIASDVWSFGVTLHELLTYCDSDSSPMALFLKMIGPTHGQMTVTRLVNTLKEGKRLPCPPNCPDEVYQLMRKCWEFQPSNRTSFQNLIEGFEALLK

MAP2K2 (human) = MAP2K2 (human) (UniProt P36507)
MAP3K10 (human) = MAP3K10 (human) (UniProt Q02779)
MAP3K11 (human) = MAP3K11 (human) (UniProt Q16584)
MAPK4 (human) = MAPK4 (human) (UniProt P31152)
MAPK9 (human) = MAPK9 (human) (UniProt P45984)
MAPKAPK2 (human) = MAPKAPK2 (human) (UniProt P49137)
MKNK1 (human) = MKNK1 (human) (UniProt Q9BUB5)
Chain of MKNK1 (human) (Q9BUB5 whole entry, looked up): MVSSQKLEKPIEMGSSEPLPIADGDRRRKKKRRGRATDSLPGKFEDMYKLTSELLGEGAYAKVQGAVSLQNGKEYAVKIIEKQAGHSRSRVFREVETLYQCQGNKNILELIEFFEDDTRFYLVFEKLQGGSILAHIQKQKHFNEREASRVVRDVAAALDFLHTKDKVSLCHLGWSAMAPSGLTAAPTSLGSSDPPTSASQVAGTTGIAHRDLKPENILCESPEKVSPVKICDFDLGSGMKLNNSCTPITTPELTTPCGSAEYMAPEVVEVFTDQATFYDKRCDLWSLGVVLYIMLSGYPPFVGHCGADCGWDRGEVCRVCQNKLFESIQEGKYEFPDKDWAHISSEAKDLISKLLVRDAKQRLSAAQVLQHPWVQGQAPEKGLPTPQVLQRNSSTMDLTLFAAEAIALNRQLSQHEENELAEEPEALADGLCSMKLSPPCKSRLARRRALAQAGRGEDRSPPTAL

MYLK2 (human) = MYLK2 (human) (UniProt Q9H1R3)
NTRK2 (human) = NTRK2 (human) (UniProt Q16620)
PDGFRB (human) = PDGFRB (human) (UniProt P09619)
PLK1 (human) = PLK1 (human) (UniProt P53350)
PRKACA (human) = PRKACA (human) (UniProt P17612)
PRKD2 (human) = PRKD2 (human) (UniProt Q9BZL6)
RIOK3 (human) = RIOK3 (human) (UniProt O14730)
RPS6KA1 KD2 (human) = RPS6KA1 KD2 (human) (UniProt Q15418)
RPS6KA2 KD1 (human) = RPS6KA2 KD1 (human) (UniProt Q15349)
SGK110 (human) = SGK110 (human) (UniProt P0C264)
Chain of SGK110 (human) (P0C264 whole entry, looked up): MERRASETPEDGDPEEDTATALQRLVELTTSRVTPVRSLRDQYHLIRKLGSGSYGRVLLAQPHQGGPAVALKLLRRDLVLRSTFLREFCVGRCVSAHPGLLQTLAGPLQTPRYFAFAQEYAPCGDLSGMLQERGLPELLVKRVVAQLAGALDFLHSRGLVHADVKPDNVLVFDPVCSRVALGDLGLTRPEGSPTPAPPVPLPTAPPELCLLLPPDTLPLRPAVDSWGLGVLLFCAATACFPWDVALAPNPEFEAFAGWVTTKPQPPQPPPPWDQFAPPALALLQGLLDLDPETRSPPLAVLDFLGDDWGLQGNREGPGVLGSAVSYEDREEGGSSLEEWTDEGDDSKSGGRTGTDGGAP

SRPK1 (human) = SRPK1 (human) (UniProt Q96SB4)
STK11 (human) = STK11 (human) (UniProt Q15831)
STK17A (human) = STK17A (human) (UniProt Q9UEE5)
Chain of STK17A (human) (Q9UEE5 whole entry, looked up): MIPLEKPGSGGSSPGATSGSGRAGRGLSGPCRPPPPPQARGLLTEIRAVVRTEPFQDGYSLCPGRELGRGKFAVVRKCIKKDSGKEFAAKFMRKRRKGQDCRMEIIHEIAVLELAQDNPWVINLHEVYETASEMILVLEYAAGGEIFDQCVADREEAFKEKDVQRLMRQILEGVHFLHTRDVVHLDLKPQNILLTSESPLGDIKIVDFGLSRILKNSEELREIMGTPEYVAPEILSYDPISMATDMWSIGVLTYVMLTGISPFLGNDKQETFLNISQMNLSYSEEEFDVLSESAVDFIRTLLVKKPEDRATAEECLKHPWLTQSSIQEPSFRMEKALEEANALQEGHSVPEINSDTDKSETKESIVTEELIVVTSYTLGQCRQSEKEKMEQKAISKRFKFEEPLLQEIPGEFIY

STK33 (human) = STK33 (human) (UniProt Q9BYT3)
TAOK3 (human) = TAOK3 (human) (UniProt Q9H2K8)
Chain of TAOK3 (human) (Q9H2K8 whole entry, looked up): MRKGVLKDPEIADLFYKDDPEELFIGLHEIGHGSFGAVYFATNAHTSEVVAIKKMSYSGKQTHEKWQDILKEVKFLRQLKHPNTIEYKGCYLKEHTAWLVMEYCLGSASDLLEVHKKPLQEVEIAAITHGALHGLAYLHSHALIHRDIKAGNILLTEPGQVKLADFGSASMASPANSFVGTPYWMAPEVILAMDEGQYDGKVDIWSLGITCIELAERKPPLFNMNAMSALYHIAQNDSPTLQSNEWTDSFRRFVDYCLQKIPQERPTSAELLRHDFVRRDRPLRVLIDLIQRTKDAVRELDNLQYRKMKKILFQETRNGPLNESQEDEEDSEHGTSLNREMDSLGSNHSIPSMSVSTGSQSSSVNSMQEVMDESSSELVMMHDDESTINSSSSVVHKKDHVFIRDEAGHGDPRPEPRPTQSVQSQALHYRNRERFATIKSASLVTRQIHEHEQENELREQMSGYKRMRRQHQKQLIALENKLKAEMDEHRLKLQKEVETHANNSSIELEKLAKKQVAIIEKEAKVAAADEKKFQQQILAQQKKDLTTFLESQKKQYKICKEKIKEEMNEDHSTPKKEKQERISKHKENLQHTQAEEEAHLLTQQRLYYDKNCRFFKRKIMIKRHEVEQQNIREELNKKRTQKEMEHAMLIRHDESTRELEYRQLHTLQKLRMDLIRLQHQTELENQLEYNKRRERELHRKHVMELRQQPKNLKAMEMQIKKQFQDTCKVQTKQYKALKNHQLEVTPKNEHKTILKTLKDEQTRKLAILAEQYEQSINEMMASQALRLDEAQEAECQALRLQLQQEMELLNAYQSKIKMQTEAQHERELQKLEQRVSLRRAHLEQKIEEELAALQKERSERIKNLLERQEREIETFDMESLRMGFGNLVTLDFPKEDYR

TNK2 (human) = TNK2 (human) (UniProt Q07912)
TTK (human) = TTK (human) (UniProt P33981)
[2] = target: TYK2 JH1 catalytic (human) (UniProt P29597)
WEE1 (human) = WEE1 (human) (UniProt P30291)

Chain of CAMK2A (human) (Q9UQM7 whole entry, looked up): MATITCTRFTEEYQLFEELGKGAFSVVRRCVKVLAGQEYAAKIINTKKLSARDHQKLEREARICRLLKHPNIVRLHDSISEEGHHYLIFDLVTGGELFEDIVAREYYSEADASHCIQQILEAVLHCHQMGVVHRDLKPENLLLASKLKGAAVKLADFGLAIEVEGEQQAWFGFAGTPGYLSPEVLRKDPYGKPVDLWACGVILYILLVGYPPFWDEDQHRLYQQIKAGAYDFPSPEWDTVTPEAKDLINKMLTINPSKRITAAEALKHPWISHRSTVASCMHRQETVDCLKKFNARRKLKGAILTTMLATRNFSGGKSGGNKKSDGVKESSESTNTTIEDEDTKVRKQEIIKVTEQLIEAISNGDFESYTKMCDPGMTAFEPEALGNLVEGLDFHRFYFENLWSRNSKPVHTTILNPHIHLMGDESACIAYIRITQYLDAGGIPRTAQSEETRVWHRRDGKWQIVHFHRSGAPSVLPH

Row | SMILES | kinase still bound, per cent of control (ACVRL1 (human)) | kinase still bound, per cent of control (BRSK1 (human)) | kinase still bound, per cent of control (CAMK2A (human)) | kinase still bound, per cent of control (CDC42BPG (human)) | kinase still bound, per cent of control (CDK15 (human)) | kinase still bound, per cent of control (CDK18 (human)) | kinase still bound, per cent of control (CDK7 (human)) | kinase still bound, per cent of control (CHUK (human)) | kinase still bound, per cent of control (CSNK1G1 (human)) | kinase still bound, per cent of control (DCLK2 (human)) | kinase still bound, per cent of control (EPHB2 (human)) | kinase still bound, per cent of control (FYN (human)) | kinase still bound, per cent of control (IKBKB (human)) | kinase still bound, per cent of control [1] | kinase still bound, per cent of control (MAP2K2 (human)) | kinase still bound, per cent of control (MAP3K10 (human)) | kinase still bound, per cent of control (MAP3K11 (human)) | kinase still bound, per cent of control (MAPK4 (human)) | kinase still bound, per cent of control (MAPK9 (human)) | kinase still bound, per cent of control (MAPKAPK2 (human)) | also measured
1 | Cc1ccc(NC(=O)c2cccc(C(C)(C)C#N)c2)cc1Nc1ccc2ncn(C)c(=O)c2c1 | 100% | 91% | 100% | 98% | 100% | 100% | 100% | 72% | 88% | 100% | 0% | 3.6% | 94% | 100% | 100% | 100% | 91% | 100% | 1.8% | 100% | kinase still bound, per cent of control (MKNK1 (human)): 100%; kinase still bound, per cent of control (MYLK2 (human)): 100%; kinase still bound, per cent of control (NTRK2 (human)): 77%; kinase still bound, per cent of control (PDGFRB (human)): 0%; kinase still bound, per cent of control (PLK1 (human)): 100%; kinase still bound, per cent of control (PRKACA (human)): 100%; kinase still bound, per cent of control (PRKD2 (human)): 99%; kinase still bound, per cent of control (RIOK3 (human)): 100%; kinase still bound, per cent of control (RPS6KA1 KD2 (human)): 87%; kinase still bound, per cent of control (RPS6KA2 KD1 (human)): 89%; kinase still bound, per cent of control (SGK110 (human)): 100%; kinase still bound, per cent of control (SRPK1 (human)): 100%; kinase still bound, per cent of control (STK11 (human)): 100%; kinase still bound, per cent of control (STK17A (human)): 100%; kinase still bound, per cent of control (STK33 (human)): 99%; kinase still bound, per cent of control (TAOK3 (human)): 100%; kinase still bound, per cent of control (TNK2 (human)): 100%; kinase still bound, per cent of control (TTK (human)): 95%; kinase still bound, per cent of control [2]: 85%; kinase still bound, per cent of control (WEE1 (human)): 100%
2 | COc1cc(C(=O)NC2CCN(C)CC2)ccc1Nc1ncc2c(n1)N(C1CCCC1)CCC(=O)N2C(C)C | 100% | 100% | 100% | 100% | 100% | 100% | 100% | 100% | 100% | 100% | 100% | 100% | 100% | 100% | 100% | 100% | 100% | 100% | 100% | 100% | kinase still bound, per cent of control (MKNK1 (human)): 100%; kinase still bound, per cent of control (MYLK2 (human)): 100%; kinase still bound, per cent of control (NTRK2 (human)): 100%; kinase still bound, per cent of control (PDGFRB (human)): 100%; kinase still bound, per cent of control (PLK1 (human)): 17%; kinase still bound, per cent of control (PRKACA (human)): 100%; kinase still bound, per cent of control (PRKD2 (human)): 100%; kinase still bound, per cent of control (RIOK3 (human)): 100%; kinase still bound, per cent of control (RPS6KA1 KD2 (human)): 100%; kinase still bound, per cent of control (RPS6KA2 KD1 (human)): 100%; kinase still bound, per cent of control (SGK110 (human)): 100%; kinase still bound, per cent of control (SRPK1 (human)): 0%; kinase still bound, per cent of control (STK11 (human)): 100%; kinase still bound, per cent of control (STK17A (human)): 100%; kinase still bound, per cent of control (STK33 (human)): 32%; kinase still bound, per cent of control (TAOK3 (human)): 100%; kinase still bound, per cent of control (TNK2 (human)): 100%; kinase still bound, per cent of control (TTK (human)): 100%; kinase still bound, per cent of control [2]: 100%; kinase still bound, per cent of control (WEE1 (human)): 100%
